Measured values published in US20120329794A1, “Ab1 KINASE INHIBITORS” (Kyowa Hakko Kirin Co., Ltd., priority 2006, published 2012).

Target: T1, Abl(T315I) protein (Homo sapiens, UniProt P00519, T315I)
T1 construct: purchased Upstate 14-522
Assay: Abl T315I inhibitory activity (radiometric kinase assay)
Assay type: biochemical
Conditions: 1 μmol/L test compound
Protocol: In order to measure Abl T315I inhibitory activity, the following method was used: A reaction solution was prepared so that the final concentrations in a volume of 25 μL were 5 to 10 mU of Abl(T315I) protein (Upstate, catalog No. 14-522), 8 mmol/L of 3-morpholinopropane sulfonic acid (pH 7.0), 0.2 mmol/L of, EDTA, 50 μmol/L of EAIYAAPFAKKK, 10 mmol/L of Mg acetate, [γ-^33P-ATP] (500 cpm/pmol), 0.1% of dimethyl sulfoxide (DMSO), and 1 μmol/L of test compound, followed by enzyme reaction at room temperature for 40 minutes. The reaction was terminated with 5 μL of a 3% aqueous phosphoric acid solution, and the reaction solution was added to a P30 filter mat. Then, the filter was washed with a 75 mmol/L aqueous phosphoric acid solution three times and 100% methanol once, and then dried. Then, the radioactivity of the filter was measured.
Assuming that a measured value of an enzyme to which 0.1% of DMSO was added was 100%, and a measured value of a sample to which an enzyme was not added was 0%, the relative activity (%) of radioactivity of a sample to which the test compound was added was calculated, and a value obtained by subtracting the calculated value from 100 was considered as Abl T315I inhibitory activity (%) of the test compound.

inhibition at 1 µM [%]	SMILES
≥ 90	Nc1cc(/C=C/c2n[nH]c3ccccc23)ccc1OCCN1CCOCC1 [Compound 4]
≥ 90	CC(=O)N1CCN(C(=O)c2ccc(/C=C/c3n[nH]c4ccccc34)cc2)CC1 [Compound 6]
≥ 90	COCC(=O)N1CCN(C(=O)c2ccc(/C=C/c3n[nH]c4ccccc34)cc2)CC1 [Compound 7]
